{"source": "patent US10695406B2", "about": "“Modulation of cellular stress using a B-cell oxidative and/or endoplasmic reticulum stress inhibitor and a targeting agent” (THE UNIVERSITY OF QUEENSLAND, priority 2014, dated 2020)", "system": "MIN6N8 cells", "assay": "ROS and NO (DHE, DCFDA, Griess assay) in MIN6N8 cells", "type": "cell-based, murine", "details": "for IL-23 induced oxidation of dihydroethidium (DHE): 50 ng/mL", "method": "Activation of ATF6 was assessed as follows: the area in pixels per square millimeter co-stained ATF6 and DAPI (blue and green), and total ATF6 staining (green) was determined in 5 fields of view for each section (n=6 for each condition) using IMAGEJ software version 1.45s. Data are presented as the percentage of ATF6 and DAPI co-fluorescence to the total ATF6 fluorescence. Phosphorylation of Ser-51 of eiF2 α was determined by an AlphaScreen assay as per the manufacturer's instructions (PERKIN-ELMER). The Griess reagent method was performed according to the manufacturer's instructions (MOLECULAR PROBES) to assess the intracellular levels of nitric oxide. 5-(and -6-)-carboxy-2,7-dichlorofluorescein diacetate (DCFDA) assay was used to determine the intracellular levels of H2O2 as previously described (Sakon et al., 2003). Cells were treated with glucose or recombinant cytokines at the concentrations indicated in the figure legends, or with 5 μM thapsigargin (SIGMA-ALDRICH) or 10 μg/mL tunicamycin (SIGMA-ALDRICH) or 0.1-0.5 mM Palmitate (SIGMA-ALDRICH) for the times indicated in the legends. ROS was […] using the dihydroethidium (DHE) fluorescent cell-permeable probe (SIGMA-ALDRICH). MIN6N8 cells plated at 2×10^6/mL were incubated with 3 μM DHE and subsequently treated with DMSO (control), 50 ng/mL IL-23 for 30 minutes±[…] IL-22 at the same time or 30 minutes prior to IL-23.\nTo determine whether IL-22 was sufficient to prevent the increase in oxidative stress caused by known stressors, for example dihydroethidium (DHE), MIN6N8 cells were exposed to 50 ng/mL IL-23 for 30 minutes±50 ng/mL IL-22 at the same time, or 30 minutes prior to the IL-23 treatment. Superoxide generation was measured using DHE, which fluoresces red and binds DNA after oxidation. Time-lapse imaging (3 frames/min for 30 minutes) was utilized to determine the formation of superoxide (DHE-conversion/fluorescence) in cells after treatment. DAPI fluorescence was captured to visualize nuclei.\nThe concentration of ROS and NO in MIN6N8 cells treated with 16.6 mM glucose (high glucose), 10 μM H2O2, 0.5 mM palmitic acid or 50 ng/mL cytokines±50 ng/mL IL-22 either at the same time, or 30 minutes prior to the stressor treatment.", "data": [{"substance": "IL-22: interleukin-22; recombinant murine IL-22 (R&D SYSTEMS) in the mouse experiments", "values": [{"measurement": "IL-23 induced oxidation of dihydroethidium (DHE)", "setting": "30-minute pre-exposure", "result": "completely prevented DHE oxidation"}, {"measurement": "IL-23 induced oxidation of dihydroethidium (DHE)", "setting": "concomitant exposure", "result": "reduced the degree of oxidation and the number of cells affected"}, {"measurement": "basal NO production", "setting": "unstressed cells", "result": "decreased basal NO production"}, {"measurement": "production/accumulation of ROS and NO", "setting": "β-cells exposed to inflammatory cytokines, FFA, tunicamycin or H2O2", "result": "represses the production/accumulation of ROS and NO"}]}]}
